Results from patent publication US10745397B2, “1-Substituted 1,2,3,4-tetrahydro-1,7-naphthyridin-8-amine derivatives and their use as EP4 receptor antagonists” (TAKEDA PHARMACEUTICAL COMPANY LIMITED, priority 2015, dated 2020).

Tests used:
[1] = target: T1, hEP4 (C6 glioma cells overexpressing hEP4) (Homo sapiens, UniProt P35408); test: hEP4 cell based assay (cAMP), inhibition of PGE2 induced cAMP, HTRF; conditions: 1 μM compound, PGE2 at EC80
T1 construct: host or cells: C6 glioma cells overexpressing hEP4
T1 sequence (P35408 whole entry): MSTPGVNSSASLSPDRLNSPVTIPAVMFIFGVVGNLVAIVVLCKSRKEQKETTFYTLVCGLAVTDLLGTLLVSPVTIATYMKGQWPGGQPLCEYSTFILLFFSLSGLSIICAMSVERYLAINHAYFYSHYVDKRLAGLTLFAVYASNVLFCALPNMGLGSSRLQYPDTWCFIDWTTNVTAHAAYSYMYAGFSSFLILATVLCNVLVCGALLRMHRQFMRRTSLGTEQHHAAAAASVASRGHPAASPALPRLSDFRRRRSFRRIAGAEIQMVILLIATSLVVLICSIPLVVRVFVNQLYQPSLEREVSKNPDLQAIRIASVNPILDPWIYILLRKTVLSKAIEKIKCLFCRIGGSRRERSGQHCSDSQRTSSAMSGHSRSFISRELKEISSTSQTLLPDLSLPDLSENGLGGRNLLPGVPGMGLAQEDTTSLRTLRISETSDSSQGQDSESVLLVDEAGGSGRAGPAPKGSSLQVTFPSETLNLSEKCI
Protocol: The functional assay for hEP4 activation and inhibition was carried out via the quantitative determination of agonist, PGE2, induced cAMP response using HTRF in a competitive immunoassay (Cisbio dynamic 2 kit). NCEs at varying concentrations were evaluated for inhibition of PGE2 induced increase in cAMP. Briefly, C6 glioma cells overexpressing hEP4 (Takeda) were cultured in DMEM (low glucose, pyruvate), 10% FBS (Gibco) and PenStep. The cells were harvested on the day of the assay, washed with HBSS+10 mM HEPES (pH 7.4)+0.1% BSA buffer and pre-incubated with varying concentrations of NCE. Each reaction contained 7000 cells and NCEs in HBSS+10 mM HEPES+0.1% BSA assay buffer along with PDE inhibitors IBMX and Ro 20-1724 (final concentration of each inhibitor […]). Following 15 min pre-incubation, the cells were treated with EC80 concentration of agonist PGE2 for 30 min to induce cAMP. Final volume of the assay was 6 μL and DMSO concentration was maintained at 1%. The reaction was terminated with the addition of cAMP labeled with the dye d2 in lysis buffer according to manufacturers' protocol. This was followed by the addition of the anti-cAMP antibody labeled with Cryptate according to the manufacturers' protocol. The reaction was incubated at room temperature in dark for 45 min and the plate was evaluated for fluorescence at 665 nm (FRET) and 620 nm (cryptate emission) on a Flexstation III microplate reader (Molecular Devices, Sunnyvale, Calif.) Ex max: 313 nm; Em1: 620 nm; Em2: 665 nm. Data was analyzed using GraphPad Prism 5 (GraphPad Software Inc., San Diego, Calif.) where cells treated with agonist (EC80) was normalized to 0% inhibition of hEP4 and cells treated with buffer (no agonist) was normalized to 100% inhibition of hEP4. IC50 of NCEs was generated using non-linear regression—Log(inhibitor) vs. response equation in GraphPad Prism 5.

[2] = target: T2, human EP4 receptor (Homo sapiens, UniProt P35408); test: hEP4 radioligand binding assay ([3H] PGE2 competitive binding, membrane fractions); conditions: 1 nM [3H] PGE2; for inhibition at 0.3 µM: 300 nM compound; for inhibition at 1 µM: 1 μM compound
T2 construct: expressed in transfected cells; host or cells: FreeStyle293 (HEK293F) cells, transient transfection with pcDNA3.1(+), total membrane fraction
T2 sequence (P35408 whole entry): as above
Description: The full-length coding sequences for human EP1 (NM_000955), human EP2 (NM_000956), human EP3 (NM_198717) and human EP4 (NM_000958) were cloned into pcDNA3.1(+) vector (Life Technologies, CA, USA). In order to prepare overexpressed EP 1-4 membrane in Freestyle293 cells (Life Technologies, CA, USA), the pcDNA3.1(+) vector encoding a cDNA of the relevant gene was transiently transfected into FreeStyle293 cells using 293Fectin (Life Technologies, CA, USA) according to the manufacturer instruction manual. After 2 days, cultured cells were centrifuged (1,000×g, 10 min, 4° C.) and pellets homogenized by a probe sonicator (Sonics vibracell, Sonics and Materials Inc., USA; 31% Amp, 5 sec pulse, Imin interval, 4 cycles) in ice-cold 50 mM Tris-HCl buffer (pH 7.5 at 25° C.) containing 0.5 mM EDTA, 250 mM Sucrose and 10 mM MgCl2. Cell homogenates were centrifuged (890×g, 10 min, 4° C.), and the supernatant was recovered. Total membrane fractions were isolated by ultracentrifugation (140,000×g, 60 min, 4° C.). Pellets were re-suspended in the same buffer, and stored at −80° C. until use. The protein concentration in homogenate was determined with the BCA Protein Assay Kit (Pierce Biotechnology, Inc., IL, USA) according to the manufacturer protocol.
The binding affinity of the compounds was evaluated using a competitive radioligand binding assay which measured the specific binding of [3H] PGE2 to the human EP4 receptor. Briefly, varying concentrations of NCEs were incubated with cell membrane fractions generated HEK293F cells transiently transfected with human EP4 receptor as described above. Each reaction consisted of 10 μg membrane protein and NCE in 50 mM Tris-HCl, pH-6.0 by NaOH, 10 mM MgCl2 and 0.5 mM EDTA assay buffer. Radioligand, [3H] PGE2 (American Radiochemicals Inc. Specific Activity 180 Ci/mmol), at a final of 1 nM was added to each reaction where the final assay volume was 200 μL and concentration of DMSO was adjusted to 1%. Appropriate controls included total binding in the assay (vehicle control) and control for non-specific binding. Non-specific binding was evaluated by incubating the hEP4 protein with 10 μM unlabeled PGE2 under the same assay conditions as NCEs. The reaction was incubated at room temperature for 2 hours and terminated by harvesting the reaction contents to a PEI coated GF/C filter plate (PerkinElmer). The plate was washed four times with cold 50 mM Tris-HCl, pH-7.5 wash buffer and dried at 50° C. for 2 hours or at 37° C. overnight. [3H] PGE2 bound to the protein was quantified by the addition of 25 μL of Microscint PS (PerkinElmer) and plate was read on MicroBeta2 liquid Scintillation and luminescence counter (PerkinElmer). Data was analyzed using GraphPad Prism 5 (GraphPad Software Inc., San Diego, Calif.) where non-specific binding was normalized to 0% specific binding of [3]PGE2 and vehicle control (DMSO) was normalized to 100% specific binding of [3]PGE2. Binding affinity of NCEs, Ki, was generated using One site—Fit Ki equation in GraphPad Prism 5.

| Compound | inhibition at 1 µM [1] | inhibition at 0.3 µM [2] | inhibition at 1 µM [2] |
| --- | --- | --- | --- |
| C[C@H](Nc1nccc2c1N(Cc1ccc(C(F)(F)F)cc1)CCO2)c1ccc(C(=O)NOCc2ccccc2)cc1 [Example D5, N-benzyloxy-4-[(1S)-1-[[4-[[4-(trifluoromethyl)phenyl]methyl]-2,3-dihydropyrido[4,3-b][1,4]oxazin-5-yl]amino]ethyl]benzamide] | 90% | 88% | – |
| O=C(O)c1ccc(C2(Nc3nccc4c3N(Cc3ccc(F)cc3)CCO4)CC2)cc1 [Example B18, 4-[1-[[4-[(4-fluorophenyl)methyl]-2,3-dihydropyrido[4,3-b][1,4]oxazin-5-yl]amino]cyclopropyl]benzoic acid] | 79% | 93% | – |
| COc1ccc(CN2CCOc3ccnc(N[C@@H](C)c4ccc(C(=O)O)cc4)c32)cc1 [Example B15, 4-[(1S)-1-[[4-[(4-methoxyphenyl)methyl]-2,3-dihydropyrido[4,3-b][1,4]oxazin-5-yl]amino]ethyl]benzoic acid] | 99% | 98% | – |
| C[C@H](Nc1nccc2c1N(Cc1cccnc1)CCO2)c1ccc(C(=O)O)cc1 [Example B28, 4-[(1S)-1-[[4-(3-pyridylmethyl)-2,3-dihydropyrido[4,3-b][1,4]oxazin-5-yl]amino]ethyl]benzoic acid] | – | 49% | – |
| COC(=O)c1ccc([C@H](C)Nc2nccc3c2N(C(=O)c2ccc(C(F)(F)F)cc2)CCO3)cc1 [Example A48, methyl 4-[(1S)-1-[[4-[4-(trifluoromethyl)benzoyl]-2,3-dihydropyrido[4,3-b][1,4]oxazin-5-yl]amino]ethyl]benzoate] | – | 28% | – |
| C[C@H](Nc1nccc2c1N(Cc1ccc(C(F)(F)F)cc1)C(=O)CS2)c1ccc(C(=O)O)cc1 [Example B36, 4-[(1S)-1-[[3-oxo-4-[[4-(trifluoromethyl)phenyl]methyl]pyrido[4,3-b][1,4]thiazin-5-yl]amino]ethyl]benzoic acid] | – | 49% | – |
| COC(=O)c1ccc(C2(Nc3nccc4c3N(Cc3ccc(F)c(F)c3)C(=O)CO4)CC2)cc1 [Example A47, methyl 4-[1-[[4-[(3,4-difluorophenyl)methyl]-3-oxopyrido[4,3-b][1,4]oxazin-5-yl]amino]cyclopropyl]benzoate] | – | 12% | – |
| C[C@H](Nc1nccc2c1N(Cc1ccc(C(F)(F)F)cc1)CCN2C)c1ccc(C(=O)O)cc1 [Example B35, 4-[(1S)-1-[[1-methyl-4-[[4-(trifluoromethyl)phenyl]methyl]-2,3-dihydropyrido[3,4-b]pyrazin-5-yl]amino]ethyl]benzoic acid] | – | 42.4% | – |
| C[C@H](Nc1nccc2c1N(Cc1ccc3ccccc3c1)CCO2)c1ccc(C(=O)O)cc1 [Example B29, 4-[(1S)-1-[[4-(2-naphthylmethyl)-2,3-dihydropyrido[4,3-b][1,4]oxazin-5-yl]amino]ethyl]benzoic acid] | 96% | 100% | – |
| O=C(O)c1ccc(C2(Nc3nccc4c3N(Cc3cc(F)cc(F)c3)CCO4)CC2)cc1 [Example B17, 4-[1-[[4-[(3,5-difluorophenyl)methyl]-2,3-dihydropyrido[4,3-b][1,4]oxazin-5-yl]amino]cyclopropyl]benzoic acid] | 86% | 96% | – |
| COc1ccc(CNc2nccc3c2N(Cc2ccc(F)c(F)c2)CCO3)cc1 [Example A49, 4-[(3,4-difluorophenyl)methyl]-N-[(4-methoxyphenyl)methyl]-2,3-dihydropyrido[4,3-b][1,4]oxazin-5-amine] | – | 17% | – |
| C[C@H](Nc1nccc2c1N(Cc1cccc(Cl)c1)CCN2C)c1ccc(C(=O)O)cc1 [Example B34, 4-[(1S)-1-[[4-[(3-chlorophenyl)methyl]-1-methyl-2,3-dihydropyrido[3,4-b]pyrazin-5-yl]amino]ethyl]benzoic acid] | – | 42.5% | – |
| COC(=O)c1ccc([C@H](C)Nc2ncnc3c2N(Cc2cccc(Cl)c2)C(=O)CO3)cc1 [Example A46, methyl 4-[(1S)-1-[[5-[(3-chlorophenyl)methyl]-6-oxo-pyrimido[4,5-b][1,4]oxazin-4-yl]amino]ethyl]benzoate] | – | 12% | – |
| C[C@H](Nc1ncnc2c1N(Cc1cccc(Cl)c1)CCO2)c1ccc(C(=O)O)cc1 [Example B38, 4-[(1S)-1-[[5-[(3-chlorophenyl)methyl]-6,7-dihydropyrimido[4,5-b][1,4]oxazin-4-yl]amino]ethyl]benzoic acid] | – | 88% | – |
| Cc1cccnc1CNc1nccc2c1N(Cc1ccc(F)c(F)c1)CCO2 [Example A50, 4-[(3,4-difluorophenyl)methyl]-N-[(3-methyl-2-pyridyl)methyl]-2,3-dihydropyrido[4,3-b][1,4]oxazin-5-amine] | – | 26% | – |
| Cc1noc(C)c1CN1CCOc2ccnc(N[C@@H](C)c3ccc(C(=O)O)cc3)c21 [Example B41, 4-[(1S)-1-[[4-[(3,5-dimethylisoxazol-4-yl)methyl]-2,3-dihydropyrido[4,3-b][1,4]oxazin-5-yl]amino]ethyl]benzoic acid] | – | 47% | – |
| C[C@H](Nc1nccc2c1N(Cc1cccc(Cl)c1)C(=O)CS2)c1ccc(C(=O)O)cc1 [Example B43, 4-[(1S)-1-[[4-[(3-chlorophenyl)methyl]-3-oxopyrido[4,3-b][1,4]thiazin-5-yl]amino]ethyl]benzoic acid] | – | 10% | – |
| C[C@H](Nc1nccc2c1N(Cc1ccccn1)CCO2)c1ccc(C(=O)O)cc1 [Example B27, 4-[(1S)-1-[[4-(2-pyridylmethyl)-2,3-dihydropyrido[4,3-b][1,4]oxazin-5-yl]amino]ethyl]benzoic acid] | – | 42% | – |
| C[C@H](Nc1nccc2c1N(Cc1ccc(F)c(F)c1)C(=O)CS2)c1ccc(C(=O)O)cc1 [Example B42, 4-[(1S)-1-[[4-[(3,4-difluorophenyl)methyl]-3-oxopyrido[4,3-b][1,4]thiazin-5-yl]amino]ethyl]benzoic acid] | – | 0.3% | 26% |
| C[C@H](Nc1ncc(C2CC2)c2c1N(Cc1cccc(C(F)(F)F)c1)CCO2)c1ccc(C(=O)O)cc1 [Example B47, 4-[(1S)-1-[[8-cyclopropyl-4-[[3-(trifluoromethyl)phenyl]methyl]-2,3-dihydropyrido[4,3-b][1,4]oxazin-5-yl]amino]ethyl]benzoic acid] | – | 60% | – |
| Fc1ccc(CN2CCOc3ccnc(NCC4CCCCC4)c32)cc1F [Example A51, N-(cyclohexylmethyl)-4-[(3,4-difluorophenyl)methyl]-2,3-dihydropyrido[4,3-b][1,4]oxazin-5-amine] | – | – | 29% |
